Earlier results as cited in patent US10653626B2, “Powder for oral suspension containing lamotrigine” (Shanghai Aucta Pharmaceuticals Co., Ltd., priority 2016, dated 2020).

Solubility in water: insoluble in water
SMILES: Nc1nnc(-c2cccc(Cl)c2Cl)c(N)n1 [Lamotrigine, 6-(2,3-dichlorophenyl)-1,2,4-triazine-3,5-diamine]
